Results on 3 compounds are retold here after patent US20090124598A1, “PHARMACEUTICAL USE OF SUBSTITUTED AMIDES” (priority 2005, published 2009).

As usually defined, the IC50 is the concentration at which inhibition is half-maximal.

This assay concerns the target T1, h-11βHSD1 (Homo sapiens, UniProt P28845).
T1 construct: made in house
The assay is described as follows: 11βHSD1 enzyme assay (SPA). Format: biochemical. The note with it: extract of yeast transformed with h-11βHSD1; 120 nM 3H-cortisone, 60 min at 30° C., pH=7.4; read-out: Inhibition of 11βHSD1, h-11βHSD1 IC50 values. The protocol: 3H-cortisone and anti-rabbit Ig coated scintillation proximity assay (SPA) beads were purchased from Amersham Pharmacia Biotech, P-NADPH was from Sigma and rabbit anticortisol antibodies were from Fitzgerald. An extract of yeast transformed with h-11βHSD1 (Hult et al., FEBS Lett., 441, 25 (1998)) was used as the source of enzyme. The test compounds were dissolved in DMSO (10 mM). All dilutions were performed in a buffer containing 50 mM TRIS-HCl (Sigma Chemical Co), 4 mM EDTA (Sigma Chemical Co), 0.1% BSA (Sigma Chemical Co), 0.01% Tween-20 (Sigma Chemical Co) and 0.005% bacitracin (Novo Nordisk A/S), pH=7.4. Optiplate 96 wells plates were supplied by Packard. The amount of 3H-cortisol bound to the SPA beads was measured on TopCount NXT, Packard.
h-11βHSD1, 120 nM 3H-cortisone, 4 mM β3-NADPH, antibody (1:200), serial dilutions of test compound and SPA particles (2 mg/well) were added to the wells. The reaction was initiated by mixing the different components and was allowed to proceed under shaking for 60 min at 30° C. The reaction was stopped be the addition of 10 fold excess of a stopping buffer containing 500 μM carbenoxolone and 1 μM cortisone. Data was analysed using GraphPad Prism software.

T1 sequence (P28845 whole entry): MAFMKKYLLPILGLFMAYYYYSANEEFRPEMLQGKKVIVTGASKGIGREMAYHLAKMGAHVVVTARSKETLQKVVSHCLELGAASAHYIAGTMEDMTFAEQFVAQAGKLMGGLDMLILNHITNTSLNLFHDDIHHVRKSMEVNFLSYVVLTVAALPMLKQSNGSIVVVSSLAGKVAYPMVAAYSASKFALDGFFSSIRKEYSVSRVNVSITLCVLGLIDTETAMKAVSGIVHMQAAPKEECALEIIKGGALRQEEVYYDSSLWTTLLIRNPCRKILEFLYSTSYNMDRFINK

With `CN(Cc1ccc(C(=O)N2CC3(C)CC2CC(C)(C)C3)cc1)C(=O)c1ccc(S(C)(=O)=O)cc1` (stereo not drawn) [Example 1-28, 4-Methanesulfonyl-N-methyl-N-[4-(1,3,3-trimethyl-6-aza-bicyclo[3.2.1]octane-6-carbonyl)-benzyl]-benzamide], the IC50 is 19 nM.
The value for `CC(C)N(Cc1ccc(C(=O)N2CC3(C)CC2CC(C)(C)C3)cc1)S(=O)(=O)C(F)(F)F` (stereo not drawn) [Example 2-5, Trifluoro-N-isopropyl-N-[4-(1,3,3-trimethyl-6-aza-bicyclo[3.2.1]octane-6-carbonyl)-benzyl]-methanesulfonamide] was 10 nM.
Under `COC(=O)CN(C)C(=O)N(C)Cc1ccc(C(=O)N2CC3(C)CC2CC(C)(C)C3)cc1` (stereo not drawn) [Example 3-8, {1,3-Dimethyl-3-[4-(1,3,3-trimethyl-6-aza-bicyclo[3.2.1]octane-6-carbonyl)-benzyl]-ureido}-acetic Acid Methyl Ester] stands 500 nM.
